Values after ≈ are worked out from the molar mass of the structure shown. Values joined by “and” are separate entries in the source; they are usually repeats but may differ in a detail not shown here. Equal entries are not always repeated.
What was measured:
[1] = Cyclic voltammetry: formal redox potential, peak current ratio, electrochemical reversibility; type: physicochemical; details: for formal redox potential E0': midpoint of CV peak potentials; for pH dependence (slope) of E0': pH 0 to pH 13; for change of E0' from acidic (pH 0) to alkaline (pH 13): 13 pH units
Experimental: The investigated compounds were used as-purchased and without any purification. […] For each series of CVs, a freshly polished electrode was used. The CVs for soluble compounds in 1 mM concentration were recorded in a glass beaker with a customized lid in nitrogen purged solutions of three different pHs, namely pH 0 (1 M H2SO4), pH 7 (0.5 M phosphate buffer) and pH 13 (1 M NaOH). The pH of the NaOH solution is taken as 13 to account for carbonization of the solution with exposure to air. A background CV was recorded before each CV experiment to exclude background contaminations. The CVs of insoluble compounds in 1 M H2SO4, or 0.5 M phosphate buffer were recorded as follows: 6 mL of the supporting electrolyte was mixed with approximately 4 mL of acetone, and then a small amount of the quinone was added so that its concentration was around 1 mM.
Each CV was analyzed in terms of peak potentials and peak currents. Peak currents were determined by subtracting a polynomial fit of the background from the recorded current as exemplified in Supplementary, S1. A plot of the absolute values of the peak currents to the square root of the scan rate was constructed and, when reasonable, a linear fit included to evaluate the electrochemical (Nernstian) reversibility of the electrochemical reaction. The peak current Ip for reversible reactions are given by equation (1).
Where F is the Faraday constant, R the gas constant, T the temperature, n the number of electron transferred, A the area of the electrode, DOthe diffusion coefficient and CO^*the bulk concentration of the analyte and v the scan rate. The peak current ratio is expected to be close to one for reversible species. The formal redox potential (E^0’), which is the adjusted form of the standard redox potential, where effects of the medium is taken into account, is reported here as the midpoint potential between the two peak potentials in the CV[24]. All half-cell potentials in this work refer to the normal hydrogen electrode (VNHE).

[2] = Aqueous solubility estimation (OECD test #105) in 1 M supporting electrolytes
Experimental: After each addition the test tube was ultrasonicated and/or shaken vigorously using a Vortex Generator for at least 10 minutes at room temperature. Then the tube was inspected visually for undissolved sample and the addition of supporting electrolyte solution continued until the sample seemed just dissolved. The volumes just before and after full dissolution are used for calculating the solubility interval (Supplementary, S4 and S5) and the solubility is estimated as the average between the two.

[3] = pH 0 (1 M H2SO4), about 1 mM, acetone added for insoluble compounds
[4] = 1 M H2SO4 supporting electrolyte prepared from MilliQ water, aqueous buffer, thermodynamic from solid, Solubility, 1 M H2SO4, room temperature, interval just after / before full dissolution
[5] = 1 M KCl supporting electrolyte prepared from MilliQ water, saline or isotonic, thermodynamic from solid, Solubility, 1 M KCl, room temperature
[6] = 1 M KOH supporting electrolyte prepared from MilliQ water, aqueous buffer, thermodynamic from solid, Solubility, 1 M KOH, room temperature
[7] = water / supporting electrolytes as worded
[8] = aqueous buffer, thermodynamic from solid, Solubility
[9] = saline or isotonic, thermodynamic from solid, Solubility

Structure (SMILES) | Peak current ratio ([1]; pH 0) | formal redox potential E0' [1, 3] | Peak current ratio ([1]; pH 7) | formal redox potential E0' ([1]; pH 7 (0.5 M phosphate buffer)) | Peak current ratio ([1]; pH 13) | formal redox potential E0' ([1]; pH 13 (1 M NaOH)) | Electrochemical reversibility ([1]; pH not specified) | solubility [2, 4] [mM] | solubility [2, 5] [mM] | Electrochemical reversibility ([1]; pH 13) | solubility [2, 6] [mM] | further results
Cc1cc(O)c2c(c1)C(=O)c1cc(O)cc(O)c1C2=O [AQTrHM, 1,3,8-trihydroxy-6-methylanthracene-9,10-dione] | 0.15(4) | -0.04(1) VNHE | 0.19(6) | -0.386(2) VNHE | 0.2(2) | -0.63(1) VNHE | Reversible | < 10 | < 10 |  |  | 
O=C1C=C(O)C(=O)C=C1O [BQ(1,4)DH, 2,5-dihydroxy-1,4-benzoquinone] | 0.87(4) | 0.382(4) VNHE and 0.38 VNHE | 1.1(2) |  | 0.8(1) |  | Quasireversible | < 10 | < 10 |  |  | reduction of E0' compared to the parent BQ compound ([1]; pH 0): 300 mV; pH dependence (slope) of E0' [1]: ~−90 mV/pH unit
O=C1C(O)=C(Cl)C(=O)C(O)=C1Cl [BQ(1,4)DHDCl, 2,5-dichloro-3,6-1,4-benzoquinone] | 1.3(1) | 0.394(1) VNHE | 1.2(4) |  | 0.8(2) |  |  | < 10 | 10 (≈ 2090 µg/mL) | Quasireversble | < 10 | change of E0' from acidic (pH 0) to alkaline (pH 13) [1]: 0.99 V; Electrochemical reversibility ([1]; pH 0): Reversible; pH dependence (slope) of E0' [1]: −76 mV/pH unit; Electrochemical reversibility ([1]; pH 7): Quasireversble; aqueous solubility, qualitative [2, 7]: insoluble in water
Oc1c(F)c(F)c(O)c(F)c1F [HQ(1,4)TF, 1,2,4,5-tetrafluoro-3,6-dihydroxybenzene] | 0.5(1) | 0.707(4) VNHE | 0.21(7) | 0.23(7) VNHE | 0.2(1) | -0.05(6) VNHE | Quasireversible |  | 10 (≈ 1820 µg/mL) |  |  | 
O=S(=O)(O)c1cc(O)c(O)c(S(=O)(=O)O)c1 [HQ(1,2)DS, 4,5-dihydroxy-1,3-benzenedisulfonate disodium monohydrate] | 0.4(1) | 0.86(3) VNHE |  | 0.7 VNHE |  |  | Quasireversible |  |  |  |  | reduction/oxidation peak ratio ([1]; all pH values): significantly low; increase of E0' relative to ortho-BQ ([1]; two sulfonate groups): 50 mV
O=C1C(O)=C(O)C(=O)C(O)=C1O [BQ(1,4)TH, Tetrahydroxy-1,4-benzoquinone] |  | 0.28 VNHE |  |  |  |  | completely loses its electrochemical activity | < 10 | < 10 | Quasireversible | < 10 | Electrochemical reversibility ([1]; pH 6.2): Quasireversible
c1cnccn1 [Pyrazine, 1,4-diazine] |  | -0.013(2) VNHE |  | Unstable |  | Unstable |  | ~7000 (≈ 561000 µg/mL) | ~7000 (≈ 561000 µg/mL) |  | ~7000 (≈ 561000 µg/mL) | 
O=S(=O)([O-])c1cc(O)ccc1O.[K+] [HQ(1,4)S, 2,5-dihydroxybenzenesulfonate potassium] |  | 0.664(8) VNHE |  | 0.471(4) VNHE |  | -0.07(1) VNHE | Quasireversible |  |  |  |  | 
O=C1C(Cl)=C(Cl)C(=O)c2c(O)ccc(O)c21 [NQ(1,4)DHDCl, 2,3-dichloro-5,8-dihydroxy-1,4-naphtoquinone] |  |  |  |  |  | ≈ 0.4 VNHE | electrochemically irreversible | < 10 | < 10 |  | < 10 | aqueous solubility, qualitative [2, 7]: insoluble in water
Oc1ccccc1O [HQ(1,2), Ortho hydroquinone] |  |  |  |  |  |  |  |  |  | Irreversible |  | Electrochemical reversibility ([1]; pH 0): Quasireversible; Electrochemical reversibility ([1]; pH 7): Quasireversible
O=C1c2c(O)ccc(O)c2C(=O)c2c(O)ccc(O)c21 [AQTH(1,4), 1,4,5,8-tetrahydroxy-9,10-anthraquinone] |  | 0.200(4) VNHE |  |  | 1.2(1) |  |  | < 10 | < 10 | Reversible |  | E0' more negative compared to AQDH(1,4) ([1]; alkaline): approximately 100 mV; solubility compared to AQDH(1,4) ([2]; alkaline): only half the solubility
c1ccc2nc3ccccc3nc2c1 [Phenazine] |  | 0.403(3) VNHE |  | Unstable |  | Unstable |  |  |  |  |  | solubility [2]: < 10 mM; solubility [2, 8]: 10 mM (≈ 1800 µg/mL); solubility [2, 9]: < 10 mM
CC(C)=CCC1=C(O)C(=O)c2ccccc2C1=O [NQ(1,4)HB, 2-hydroxy-3-(3-methyl-2-butenyl)-1,4-naphthoquinone] |  | 0.333(3) VNHE | 1.08(5) |  | 0.38(4) |  |  | < 10 | < 10 | Quasireversible | 700 (≈ 170000 µg/mL) | change of E0' from acidic (pH 0) to alkaline (pH 13) [1]: 0.8 V; Electrochemical reversibility ([1]; pH 0): Quasireversible; pH dependence (slope) of E0' [1]: 67 mV/pH unit; Electrochemical reversibility ([1]; pH 7): Reversible
O=C(O)c1cnccn1 [Pyrazine-2-carboxylic acid] |  | -0.013(3) VNHE |  | Unstable |  | Unstable |  | 70 (≈ 8690 µg/mL) | 80 (≈ 9930 µg/mL) |  | 900 (≈ 112000 µg/mL) | 
O=C1C=C(O)C(=O)c2ccccc21 [NQ(1,4)H, 2-hydroxy-1,4-naphtoquinone] | 0.81(8) | 0.308(4) VNHE | 1.2(3) |  | 0.73(6) |  | Quasireversible | < 10 | < 10 | seemingly reversible | 820 (≈ 143000 µg/mL) | change of E0' from acidic (pH 0) to alkaline (pH 13) [1]: 0.8 V; pH dependence (slope) of E0' [1]: 67 mV/pH unit
Oc1c(Cl)c(Cl)c(O)c(Cl)c1Cl [HQ(1,4)TCl, Tetrachloro hydroquinone] | 0.72(5) | 0.70(1) VNHE | 1.1(2) | 0.277(1) VNHE |  | 0.08(1) VNHE | Quasireversible |  |  |  |  | aqueous solubility, qualitative [2]: insoluble in water; solubility [2]: < 10 mM; solubility [2, 8]: < 10 mM; solubility [2, 9]: < 10 mM
Nc1c(S(=O)(=O)[O-])cc(Br)c2c1C(=O)c1ccccc1C2=O.[Na+] [AQS(2)NBr, 1-amino-4-bromo-9,10-anthraquinone-2-sulfonate sodium] |  | 0.14(4) VNHE |  |  |  |  | Quasireversible |  |  |  |  | 
O=C1c2cccc(O)c2C(=O)c2cccc(O)c21 [AQDH(1,5), 1,5-dihydroxy-9,10-anthraquinone] |  |  |  |  | 0.79(9) |  |  | < 10 | < 10 | Quasireversible |  | 
O=C1C=C(S(=O)(=O)O)c2ccccc2C1=O [NQ(1,2)S, 1,2-naphtoquinone-4-sulfonate sodium] | 0.8(1) | 0.55(1) VNHE | 0.52(3) | 0.24(1) VNHE | 0.9(1) |  | Quasireversible |  | ~10 |  | 900 | 
Oc1ccc(O)cc1 [HQ(1,4), Para hydroquinone] | 2.3(1) | 0.669(5) VNHE | 1.2(3) | 0.433(7) VNHE |  | 0.11(1) VNHE |  |  |  |  |  | Electrochemical reversibility ([1]; pH 0): Quasireversible; Electrochemical reversibility ([1]; pH 7): Quasireversible
O=C1C=CC(=O)C=C1 [para-BQ] |  |  |  |  |  | 0.11 VNHE |  |  |  |  |  | pH dependence (slope) of E0' [1]: −45 mV/pH unit
